Test [1] relates to RKO (RKOp27) human colon adenocarcinoma cells. Kind of test: Alamar Blue cell viability assay, anti-proliferative/cytotoxic activity on proliferating (uninduced) RKOp27 cells. In kind it is cell-based. To be noted: RKOp27 subclone without inducer, 72 hours incubation, read-out: IC50 RKO p27 uninduced (proliferating). The method, then: The anti-proliferative/cytotoxic activity of the compounds described herein, can be tested on subclones of RKO (RKOp27) human colon adenocarcinoma cells (Schmidt et al., Oncogene 19, 2423-2429; 2000) using the Alamar Blue cell viability assay (described in O'Brien et al. Eur J Biochem 267, 5421-5426, 2000). The compounds are dissolved as 20 mM solutions in dimethylsulfoxide (DMSO) and subsequently diluted in semi-logarithmic steps. DMSO dilutions are further diluted 1:100 into Dulbecco's modified Eagle's medium (DMEM) containing 10% fetal calf serum to a final concentration twice as much as the final concentration in the test. RKO subclones are seeded into 96 well flat bottom plates at a density of 4000 cells per well in a volume of 50 μl per well. 24 hours after seeding the 50 μl each of the compound dilutions in DMEM medium are added into each well of the 96 Well plate. Each compound dilution is tested as quadruplicates. Wells containing untreated control cells are filled with 50 μl DMEM medium containing 1% DMSO. The cells are then incubated with the substances for 72 hours at 37° C. in a humidified atmosphere containing 5% carbon dioxide. To determine the viability of the cells, 10 μl of an Alamar Blue solution (Biosource) are added and the fluorescence is measured at an extinction of 544 nm and an emission of 590 nm. For the calculation of the cell viability the emission value from untreated cells is set as 100% viability and the emission rates of treated cells are set in relation to the values of untreated cells. Viabilities are expressed as % values.
The corresponding IC50 values of the compounds for anti-proliferative/cytotoxic activity are determined from the concentration-effect curves.
Representative IC50 values for anti-proliferation/cytotoxicity determined in the mentioned assay follow from the following table A, in which the numbers of the compound correspond to the numbers of the examples.
For orientation: The colour change of resazurin is a common sign of viable cells or microbes.

The test system of test [2] is RKO colon adenocarcinoma cells (RKOp27) arrested by the expression of ectopic p27Kip1. The test can be described thus: Alamar Blue cell viability assay on RKOp27 cells arrested by Ponasterone A-induced p27Kip1 expression (cell cycle specific mode of action). Conditions: Homo sapiens, RKOp27 subclone induced with 10 μM Ponasterone A, 72 hours incubation, read-out: IC50 RKO p27 induced (arrested). Type of test: cell-based. The method, then: To determine the cell cycle specific mode of action, subclones of RKO colon adenocarcinoma cells (RKOp27 or RKOp21 as described by Schmidt et al. in Oncogene 19, 2423-2429; 2000) are seeded into 96 well flat bottom plates at a density of 16000 cells per well in a volume of 50 μl per well in DMEM growth medium with 10% FCS containing 10 μM Ponasterone A. 24 hours after seeding the 50 μl each of the compound dilutions in DMEM medium are added into each well of the 96 Well plate. Each compound dilution is tested as quadruplicates. Wells containing untreated control cells are filled with 50 μl DMEM medium containing 1% DMSO. The cells are then incubated with the substances for 72 hours at 37° C. in a humidified atmosphere containing 5% carbon dioxide. To determine the viability of the cells, 10 μl of an Alamar Blue solution (Biosource) are added and the fluorescence was measured at an extinction of 544 nm and an emission of 590 nm. For the calculation of the cell viability the emission value from untreated cells is set as 100% viability and the emission rates of treated cells are set in relation to the values of untreated cells. Viabilities are expressed as % values. Viability is compared of proliferating cells grown in the absence of the inducer Ponasterone A, versus viability of cells arrested by the expression of ectopic p27Kip1 induced by Ponasterone A.

Molecules are shown by their SMILES.

On to `CCOC(=O)N1CCc2c(sc(NC(=O)CCc3cccc(C)c3)c2C#N)C1` [Example 18, 3-Cyano-2-(3-m-tolyl-propanoylamino)-4,7-dihydro-5H-thieno[2,3-c]pyridine-6-carboxylic acid ethyl ester], for which the figures for the IC50 in test [1] and in test [2] were at most 0.3 µM and over 100 µM, respectively.
Consider `CCOC(=O)N1CCc2c(sc(NC(=O)CCC3CCCCC3)c2C#N)C1` [Example 19, 3-Cyano-2-(3-cyclohexyl-propanoylamino)-4,7-dihydro-5H-thieno[2,3-c]pyridine-6-carboxylic acid ethyl ester], for which the values for the 50% inhibitory concentration (IC50) in test [1] and in test [2] were 0.3 to 2 µM and over 100 µM, respectively.
For `CCOC(=O)N1CCc2c(sc(NC(=O)CCn3nccc3C)c2C#N)C1` [Example 20, 3-Cyano-2-[3-(5-methyl-pyrazol-1-yl)-propanoylamino]-4,7-dihydro-5H-thieno[2,3-c]pyridine-6-carboxylic acid ethyl ester], the IC50 in test [1] was 0.3 to 2 µM; in test [2] it was over 100 µM.
Take `CCOC(=O)N1CCc2c(sc(NC(=O)CCC3CCCO3)c2C#N)C1` (centres unmarked) [Example 21, 3-Cyano-2-(3-tetrahydro-furan-2-yl-propanoylamino)-4,7-dihydro-5H-thieno[2,3-c]pyridine-6-carboxylic acid ethyl ester]: the figures for the IC50 in test [1] and in test [2] were at most 0.3 µM and over 100 µM, respectively.
For `CC(C)(C)OC(=O)N1CCc2c(sc(NC(=O)CCc3ccccc3)c2C#N)C1` [Example 22, 3-Cyano-2-(3-phenyl-propanoylamino)-4,7-dihydro-5H-thieno[2,3-c]pyridine-6-carboxylic acid tert-butyl ester], the IC50 in test [1] was at most 0.3 µM; in test [2] it was over 100 µM.
As to `CCOC(=O)N1CCc2c(sc(NC(=O)CCc3ccccc3Br)c2C#N)C1` [Example 23, 2-[3-(2-Bromo-phenyl)-propanoylamino]-3-cyano-4,7-dihydro-5H-thieno[2,3-c]pyridine-6-carboxylic acid ethyl ester], the IC50 is at most 0.3 µM in test [1] and over 100 µM in test [2].
Regarding `COCCOC(=O)N1CCc2c(sc(NC(=O)CCc3ccccc3)c2C#N)C1` [Example 24, 3-Cyano-2-(3-phenyl-propanoylamino)-4,7-dihydro-5H-thieno[2,3-c]pyridine-6-carboxylic acid 2-methoxy-ethyl ester], the IC50 in test [1] is at most 0.3 µM; in test [2], over 100 µM.
As to `N#Cc1c(NC(=O)CCc2ccccc2)sc2c1CCN(C(=O)OCCc1ccccn1)C2` [Example 26, 3-Cyano-2-(3-phenyl-propanoylamino)-4,7-dihydro-5H-thieno[2,3-c]pyridine-6-carboxylic acid 2-pyridin-2-yl-ethyl ester], the IC50 in test [1] was at most 0.3 µM; in test [2], over 100 µM.
Take `N#Cc1c(NC(=O)CCc2ccccc2)sc2c1CCN(C(=O)OCc1ccccn1)C2` [Example 27, 3-Cyano-2-(3-phenyl-propanoylamino)-4,7-dihydro-5H-thieno[2,3-c]pyridine-6-carboxylic acid pyridin-2-ylmethyl ester]: the IC50 in test [1] is at most 0.3 µM; in test [2], over 100 µM.
`N#Cc1c(NC(=O)CCc2ccccc2)sc2c1CCN(C(=O)OCc1cccnc1)C2` [Example 28, 3-Cyano-2-(3-phenyl-propanoylamino)-4,7-dihydro-5H-thieno[2,3-c]pyridine-6-carboxylic acid pyridin-3-ylmethyl ester]: the IC50 in test [1] is at most 0.3 µM; in test [2], over 100 µM.
On the same counts, the results for `N#Cc1c(NC(=O)CCc2ccccc2)sc2c1CCN(C(=O)OCc1ccncc1)C2` [Example 29, 3-Cyano-2-(3-phenyl-propanoylamino)-4,7-dihydro-5H-thieno[2,3-c]pyridine-6-carboxylic acid pyridin-4-ylmethyl ester] are at most 0.3 µM and over 100 µM.
With `CC1(C)OCC(COC(=O)N2CCc3c(sc(NC(=O)CCc4ccccc4)c3C#N)C2)O1` (centres unmarked) [Example 30, 3-Cyano-2-(3-phenyl-propanoylamino)-4,7-dihydro-5H-thieno[2,3-c]pyridine-6-carboxylic acid 2,2-dimethyl-[1,3]dioxolan-4-ylmethyl ester], the figures for the IC50 in test [1] and in test [2] were at most 0.3 µM and over 100 µM, respectively.
As for `N#Cc1c(NC(=O)CCc2ccccc2)sc2c1CCN(C(=O)OCC(O)CO)C2` (centres unmarked) [Example 31, 3-Cyano-2-(3-phenyl-propanoylamino)-4,7-dihydro-5H-thieno[2,3-c]pyridine-6-carboxylic acid 2,3-dihydroxy-propyl ester], the IC50 in test [1] was at most 0.3 µM; in test [2], over 100 µM.
Take `CCOC(=O)N1CCc2c(sc(NC(=O)CCc3cccc4c3OCO4)c2C#N)C1` [Example 32, 2-(3-Benzo[1,3]dioxol-4-yl-propanoylamino)-3-cyano-4,7-dihydro-5H-thieno[2,3-c]pyridine-6-carboxylic acid ethyl ester]: the results for the IC50 in test [1] and in test [2] were at most 0.3 µM and over 100 µM, respectively.
On the same counts, the results for `CCOC(=O)N1CCc2c(sc(NC(=O)CCc3cccc4c3OC(F)(F)O4)c2C#N)C1` [Example 33, 3-Cyano-2-[3-(2,2-difluoro-benzo[1,3]dioxol-4-yl)-propanoylamino]-4,7-dihydro-5H-thieno[2,3-c]pyridine-6-carboxylic acid ethyl ester] are 0.3 to 2 µM and over 100 µM.
Taken in the same sequence, the figures for `CCOC(=O)N1CCc2c(sc(NC(=O)CCc3cccc4c3OCCO4)c2C#N)C1` [Example 34, 3-Cyano-2-(3-2,3-dihydro-benzo[1,4]dioxin-5-yl-propanoylamino)-4,7-dihydro-5H-thieno[2,3-c]pyridine-6-carboxylic acid ethyl ester] were 0.3 to 2 µM and over 100 µM.
On the same counts, the results for `CCOC(=O)N1CCc2c(sc(NC(=O)CCc3cncnc3)c2C#N)C1` [Example 35, 3-Cyano-2-(3-pyrimidin-5-yl-propanoylamino)-4,7-dihydro-5H-thieno[2,3-c]pyridine-6-carboxylic acid ethyl ester] are 0.3 to 2 µM and at least 40 µM.
For the compound `CCOC(=O)N1CCc2c(sc(NC(=O)CCc3ccccn3)c2C#N)C1` [Example 36, 3-Cyano-2-(3-pyridin-2-yl-propanoylamino)-4,7-dihydro-5H-thieno[2,3-c]pyridine-6-carboxylic acid ethyl ester], the IC50 in test [1] was at most 0.3 µM; in test [2], over 100 µM.
Turning to `COCCOC(=O)N1CCc2c(sc(NC(=O)CCc3cccnc3)c2C#N)C1` [Example 37, 3-Cyano-2-(3-pyridin-3-yl-propanoylamino)-4,7-dihydro-5H-thieno[2,3-c]pyridine-6-carboxylic acid 2-methoxy-ethyl ester], the IC50 is 0.3 to 2 µM in test [1] and at least 40 µM in test [2].
As for `N#Cc1c(NC(=O)CCc2cccnc2)sc2c1CCN(C(=O)OCc1ccccn1)C2` [Example 38, 3-Cyano-2-(3-pyridin-3-yl-propanoylamino)-4,7-dihydro-5H-thieno[2,3-c]pyridine-6-carboxylic acid pyridin-2-ylmethyl ester], the results for the IC50 in test [1] and in test [2] were 0.3 to 2 µM and over 100 µM, respectively.
Regarding `N#Cc1c(NC(=O)CCc2cccnc2)sc2c1CCN(C(=O)OCc1cccnc1)C2` [Example 39, 3-Cyano-2-(3-pyridin-3-yl-propanoylamino)-4,7-dihydro-5H-thieno[2,3-c]pyridine-6-carboxylic acid pyridin-3-ylmethyl ester], the IC50 is 0.3 to 2 µM in test [1] and over 100 µM in test [2].
For `N#Cc1c(NC(=O)CCc2cccnc2)sc2c1CCN(C(=O)OCc1ccncc1)C2` [Example 40, 3-Cyano-2-(3-pyridin-3-yl-propanoylamino)-4,7-dihydro-5H-thieno[2,3-c]pyridine-6-carboxylic acid pyridin-4-ylmethyl ester], the IC50 in test [1] is 0.3 to 2 µM; in test [2], at least 40 µM.

The IC50 is the concentration that inhibits the measured activity by half.

The values are drawn from patent US7714135B2, “Tetrahydropyridothiophenes for the treatment of proliferative diseases such as cancer” (4SC AG, priority 2005, dated 2010).
